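Dose response: 5 concentrations. Exposure: 48 h. Format: 96-well plates. Endpoint: linear interpolation; highest concentration if not reached. Here, GI50 denotes the concentration required for 50% inhibition of growth. TGI denotes the concentration required for complete inhibition of growth.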 A value given as a limit tells only on which side of the number the result lay.

Among the test systems are SNB-75 CNS; UACC-257 melanoma; SF-539 CNS; SK-MEL-2 melanoma; SN12C renal; CAKI-1 renal; NCI-H522 lung; OVCAR-4 ovarian; MDA-MB-231 breast; DU-145 prostate.
Holding throughout (experiment): inhibition of tumour cell growth, NCI panel, 48 h

In the case of `Cc1[nH]c(=O)[nH]c(=O)c1/C=C/C(=O)NC(CO)CS(=O)Cc1ccccc1` (centres undefined), the TGI in the assay on SNB-75 CNS, with UACC-257 melanoma, in the assay on SF-539 CNS, in the assay with SK-MEL-2 melanoma, in the assay on SN12C renal and with CAKI-1 renal was > 300 µM each time. The TGI in the assay with NCI-H522 lung was > 300 µM.

Consider `CCOC(=O)C(Cc1cn(C(C)=O)c2ccccc12)P(=O)(OCC)OCC` (centres undefined), for which the TGI with SNB-75 CNS, with UACC-257 melanoma, in the assay on SK-MEL-2 melanoma, in the assay on SN12C renal, in the assay on CAKI-1 renal and in the assay on OVCAR-4 ovarian was > 100 µM each time. Besides, the TGI in the assay with MDA-MB-231 breast, with NCI-H522 lung and in the assay with DU-145 prostate was > 100 µM each time.

For the compound `O=C(Nc1ccc(-n2cc(-c3ccncc3)c(-c3ccc(O)c(Cl)c3)n2)cc1)Nc1ccc(Cl)c(C(F)(F)F)c1`, the GI50 was 2590 nM in the assay on SNB-75 CNS; 7.42 µM with UACC-257 melanoma; 2580 nM in the assay on SF-539 CNS; 1970 nM in the assay with SK-MEL-2 melanoma; 4.28 µM with SN12C renal; 3.17 µM with CAKI-1 renal. Moreover, the GI50 with OVCAR-4 ovarian is 3.97 µM; in the assay on MDA-MB-231 breast it was 3.2 µM; in the assay with NCI-H522 lung, 2540 nM; in the assay on DU-145 prostate, 4.99 µM. Moreover, the TGI was 14.3 µM in the assay with SNB-75 CNS; 30.8 µM in the assay with UACC-257 melanoma; 12.5 µM in the assay with SF-539 CNS; 4.52 µM with SK-MEL-2 melanoma; 17.2 µM in the assay with SN12C renal; 19.8 µM in the assay with CAKI-1 renal. The TGI in the assay on OVCAR-4 ovarian was 29.9 µM; in the assay with MDA-MB-231 breast, 12.5 µM; in the assay on NCI-H522 lung it was 13.4 µM; in the assay on DU-145 prostate, 18 µM.

In the case of `O=C(O)CCc1nc2ccccc2[nH]1`, the TGI in the assay with SNB-75 CNS, in the assay on UACC-257 melanoma, in the assay with SF-539 CNS, with SK-MEL-2 melanoma, in the assay with SN12C renal and with CAKI-1 renal was > 100 µM throughout. Moreover, the TGI in the assay on OVCAR-4 ovarian, in the assay on MDA-MB-231 breast, in the assay on NCI-H522 lung and in the assay with DU-145 prostate was > 100 µM throughout.

For `COc1ccc(OC)c(C2CCc3c(cnc4nc(N)nc(N)c34)C2)c1` (centres undefined), the TGI in the assay on UACC-257 melanoma worked out at 23.4 µM; with SF-539 CNS, 89.1 µM; with SK-MEL-2 melanoma it was 31.8 µM; in the assay on SN12C renal, 22 µM; in the assay on CAKI-1 renal, 29.1 µM; in the assay on OVCAR-4 ovarian it was 23.5 µM. Also, the TGI with MDA-MB-231 breast was 29.2 µM; in the assay with NCI-H522 lung it was 21.7 µM; in the assay on DU-145 prostate, 28.4 µM.

As to `Cn1ccc(C(=O)NCCN(CCNC(=O)c2ccn(C)c(=O)c2O)CCNC(=O)c2ccn(C)c(=O)c2O)c(O)c1=O`, the TGI in the assay on SNB-75 CNS, in the assay on UACC-257 melanoma, in the assay on SF-539 CNS, in the assay with SK-MEL-2 melanoma, in the assay with SN12C renal and in the assay on CAKI-1 renal was > 100 µM each time. Also, the TGI with OVCAR-4 ovarian, in the assay on MDA-MB-231 breast, in the assay with NCI-H522 lung and in the assay with DU-145 prostate was > 100 µM throughout.

For `CC(=O)O[C@@H]1C(=O)N(c2ccccc2)[C@@H]1c1cc2ccccc2c2ccccc12`, the TGI is > 100 µM with UACC-257 melanoma; 96.9 µM in the assay with SF-539 CNS; 40.6 µM with SK-MEL-2 melanoma; > 100 µM in the assay with SN12C renal; 36.8 µM with CAKI-1 renal; 78.5 µM in the assay with OVCAR-4 ovarian. Moreover, the TGI in the assay with MDA-MB-231 breast was 75.1 µM; with NCI-H522 lung, 11.2 µM; in the assay on DU-145 prostate it was > 100 µM.

For the compound `COc1ccc(C(O)(c2ccccc2)c2nccc3ccccc23)cc1` (centres undefined), the TGI with UACC-257 melanoma was > 100 µM; with SN12C renal, > 100 µM; in the assay on CAKI-1 renal, > 100 µM; in the assay on OVCAR-4 ovarian it was > 100 µM; with MDA-MB-231 breast it was > 100 µM; in the assay with NCI-H522 lung, 30.7 µM. For the same compound, the TGI with DU-145 prostate is > 100 µM.

With `CC(C)C(=O)CC(c1ccc(Cl)cc1)N1N=C(C(C)C)CC1c1ccc(Cl)cc1` (centres undefined), the TGI in the assay on SNB-75 CNS is > 100 µM; in the assay on UACC-257 melanoma it was 49.5 µM; in the assay on SF-539 CNS it was > 42.7 µM; with SK-MEL-2 melanoma, > 92.2 µM; in the assay with SN12C renal, > 100 µM; in the assay on CAKI-1 renal, > 94.9 µM. The TGI in the assay on NCI-H522 lung is > 100 µM.

Take `C/C(=N\NC(=S)N(C)C)c1nc2ncccc2[nH]1`: the TGI was > 100 µM with SNB-75 CNS; 64.5 µM in the assay on UACC-257 melanoma; 5.11 µM in the assay on SF-539 CNS; > 100 µM in the assay on SK-MEL-2 melanoma; > 100 µM in the assay on SN12C renal; 3.75 µM in the assay on CAKI-1 renal. Further, the TGI in the assay with OVCAR-4 ovarian is 10.6 µM; in the assay with MDA-MB-231 breast, > 100 µM; with NCI-H522 lung, 91.7 µM; in the assay on DU-145 prostate, > 100 µM.

For `OCCCNc1ncnc2[nH]ncc12`, the TGI in the assay on SNB-75 CNS, with UACC-257 melanoma, with SF-539 CNS, with SK-MEL-2 melanoma, in the assay on SN12C renal and in the assay with CAKI-1 renal was > 100 µM each time. Besides, the TGI in the assay with OVCAR-4 ovarian, with MDA-MB-231 breast, in the assay with NCI-H522 lung and in the assay on DU-145 prostate was > 100 µM each time.

In the case of `C/C(=N\NC(=S)NCCCCNC(=S)N/N=C(\C)c1ccccn1)c1ccccc1`, the TGI in the assay on SNB-75 CNS is 9.92 µM; in the assay on UACC-257 melanoma, 9.64 µM; in the assay with SF-539 CNS it was 3.86 µM; with SK-MEL-2 melanoma, 97.3 µM; with SN12C renal, 4.43 µM; with CAKI-1 renal, > 100 µM. Further, the TGI in the assay on OVCAR-4 ovarian was > 54.2 µM; in the assay with MDA-MB-231 breast, > 52.7 µM; with NCI-H522 lung, 30.7 µM; with DU-145 prostate, > 50 µM.

Take `COc1cc(/C=N\c2nc(-c3ccc(NS(=O)(=O)c4ccc(Cl)c(OC)c4)cc3)cs2)ccc1O`: the TGI with SNB-75 CNS, in the assay on SF-539 CNS, in the assay with SK-MEL-2 melanoma, in the assay with SN12C renal, in the assay with CAKI-1 renal and with OVCAR-4 ovarian was > 100 µM each time. Further, the TGI in the assay on NCI-H522 lung is 60.9 µM; with DU-145 prostate, > 100 µM.

Consider `COc1ccc(-c2cc(-c3ccc(O)cc3O)c(C#N)c(=O)[nH]2)cc1`, for which the TGI in the assay on UACC-257 melanoma turned out to be 70.8 µM; in the assay on SF-539 CNS it was 34.7 µM; in the assay with SN12C renal, 40.9 µM; in the assay on CAKI-1 renal, 64.1 µM; in the assay on OVCAR-4 ovarian, 60 µM; with MDA-MB-231 breast it was 36.8 µM. Further, the TGI in the assay on DU-145 prostate was > 100 µM.

Consider `CCOC(=O)CCSc1nc2ccc(I)cc2c(=O)n1Cc1ccccc1`, for which the TGI in the assay with SNB-75 CNS is > 100 µM; in the assay with UACC-257 melanoma it was > 92.2 µM; in the assay with SF-539 CNS, > 100 µM; in the assay on SK-MEL-2 melanoma, > 100 µM; in the assay on SN12C renal, > 100 µM; with CAKI-1 renal it was 9.59 µM. For the same compound, the TGI was > 77.1 µM with OVCAR-4 ovarian, > 100 µM in the assay on MDA-MB-231 breast, 52.5 µM in the assay with NCI-H522 lung and > 100 µM with DU-145 prostate.

`CCCn1cc2c(SC)nc(SC)nc2n1`: the TGI in the assay with SNB-75 CNS, in the assay on UACC-257 melanoma, with SF-539 CNS, in the assay on SK-MEL-2 melanoma, in the assay with SN12C renal and in the assay with CAKI-1 renal was > 100 µM each time. The TGI in the assay with OVCAR-4 ovarian was > 100 µM.

For `O=C(O)c1cc(=O)c2c(OCC(O)COc3cccc4oc(C(=O)O)cc(=O)c34)cccc2o1`, the TGI with SNB-75 CNS was > 100 µM; with UACC-257 melanoma, > 100 µM; in the assay on SF-539 CNS, > 100 µM; with SK-MEL-2 melanoma, > 79.2 µM; in the assay with SN12C renal it was > 100 µM; in the assay on CAKI-1 renal, > 100 µM. For the same compound, the TGI in the assay on OVCAR-4 ovarian is > 100 µM; with MDA-MB-231 breast, > 100 µM; with NCI-H522 lung, > 75.2 µM; in the assay on DU-145 prostate, > 100 µM.

Turning to `c1ccc(C(NC2=NCCO2)c2ccccc2)cc1`, the TGI in the assay on SNB-75 CNS, in the assay with SF-539 CNS, in the assay with SK-MEL-2 melanoma, in the assay on SN12C renal, in the assay with CAKI-1 renal and in the assay with OVCAR-4 ovarian was > 10 µM each time. In addition, the TGI in the assay with MDA-MB-231 breast, in the assay on NCI-H522 lung and in the assay on DU-145 prostate was > 10 µM each time.

(Values after PubChem BioAssay (NCI).)
